Source: patent publication US20230200390A1, “SELECTIVE HERBICIDES BASED ON SUBSTITUTED ISOXAZOLIN CARBOXAMIDES AND MEFENPYR-DIETHYL” (BAYER AKTIENGESELLSCHAFT, priority 2020, published 2023)

Columns and labels:
Format in all cases: in vivo
[1] = system: spring barley, HORVS Montoya; assay: Tank-mix; post-emergence: crop damage by herbicide with/without safener mefenpyr-diethyl; conditions: 10 DAT
Procedure: (§1) Seeds of crops (spring wheat, TRZAS; spring barley, HORVS; maize, ZEAMA) were placed in sandy loam soil in peat pots, covered with soil and cultivated in a greenhouse under good growth conditions. Two to three weeks after sowing, the test plants were treated at the 1 to 3-leaf stage. The herbicide/safener active compound combinations according to the invention, formulated as wettable powders or emulsion concentrates, and, in parallel tests, the correspondingly formulated individual active compounds were sprayed onto the green parts of the plants in various dosages using an amount of water of 300 l/ha (converted).
(§2) The pots were returned under good growing conditions in a glasshouse and a visual assessment of herbicidal effects was made at intervals from 1 to 3 weeks after herbicide application (DAT=days after treatment). Assessment was on a percentage basis in comparison with untreated control plants (0%=no injury, 100%=complete kill).

[2] = system: spring wheat, TRZAS Triso; assay: as above
Procedure: as §1, §2

[3] = system: spring wheat, TRZAS Triso; assay: Seed treatment with safener; post-emergence herbicide, crop damage; conditions: for HER effect + SAF [%] (crop damage) / Reduction [%] / Reduction [Difference]: mefenpyr-diethyl 0.5 g a.i./kg seed; for HER effect [%] (crop damage, herbicide without safener): no safener
From the text: (§3) For safener seed treatment trials, sufficient seed amounts of the respective crops (spring wheat (TRZAS); spring barley (HORVS)) were weighed into screw cap glass bottles with a minimum volume trice of the seeds.
(§4) As a first step, specified safeners formulated as wettable powder (WP) or wettable granules (WG) were weighed out for the required dosages (g a.i./kg seed), corresponding to the seed amounts. The safener amounts were mixed with a coloured slurry blind formulation type, prediluted with milk at 3.5% fat rate (25 mgs slurry formulation plus 2 ml milk per 10 grams of seed). A tube roller was used for coating. The solutions were gradually pipetted each on the rotating seeds followed by coating for min. 3 hours until all liquid had been soaked up by the seeds. Thereafter, the coated seeds were put flat on open trays for drying over night at room temperature.
(§5) Treated seeds were then placed into pots (7 cm diameter) on the surface of sandy loam, pressed down, flat covered with additional soil and finally covered with sandy soil, also pressed down, watered, and kept under good growth conditions in a greenhouse, until the plants had reached 2-leaf-stage (BBCH 12).
(§6) At that stage, post-emergence application of the specified herbicides was done on:
(§7) a) pot sets containing plants with safener-coated seeds as described above,
(§8) b) as a reference, pot sets of plants without seed treatment.
(§9) The herbicides were formulated as wettable powder (WP). Equivalent to the spray area, compound amounts were weighed out and diluted related to the water application rate (300 l/ha) to an aqueous suspension plus additive (1 l/ha MERO). Dosage related equivalents were conventionally sprayed on trays with the potted plants.
(§10) After application, the test plants were kept under good growth conditions in a greenhouse.
(§11) Assessment timings were 10 and 21 days after treatment (DAT) with the herbicide, by visual scoring of the crop damage in % (comparison of untreated with treated plants, either sprayed only with herbicide or with herbicide on plants with treated seeds).

[4] = system: spring barley, HORVS Montoya; assay: as above; conditions: for HER effect + SAF / Reduction [%] / Reduction [Difference]: mefenpyr-diethyl 0.5 g a.i./kg seed
From the text: as §3, §4, §5, §6, §7, §8, §9, §10, §11

[5] = HER 2 g a.i./ha + mefenpyr-diethyl 50 g a.i./ha
[6] = HER 8 g a.i./ha + mefenpyr-diethyl 100 g a.i./ha
[7] = HER 8 g a.i./ha + mefenpyr-diethyl 50 g a.i./ha, 10 DAT
[8] = herbicide alone 8 g a.i./ha, 10 DAT
[9] = HER 2 g a.i./ha + mefenpyr-diethyl 50 g a.i./ha, 10 DAT
[10] = HER 2 g a.i./ha post-emergence, 21 DAT
[11] = HER 32 g a.i./ha post-emergence, 21 DAT
[12] = herbicide alone 32 g a.i./ha post-emergence, 21 DAT
[13] = HER 8 g a.i./ha + mefenpyr-diethyl 50 g a.i./ha
[14] = HER 32 g a.i./ha + mefenpyr-diethyl 100 g a.i./ha
[15] = HER 32 g a.i./ha post-emergence, 10 DAT
[16] = HER 2 g a.i./ha + mefenpyr-diethyl 50 g a.i./ha, 21 DAT
[17] = HER 8 g a.i./ha + mefenpyr-diethyl 50 g a.i./ha, 21 DAT
[18] = HER 8 g a.i./ha post-emergence, 21 DAT

Q: With `COCCOC(=O)C1C=CC(NC(=O)C2(C(F)(F)F)CC(c3cc(F)cc(C#N)c3)=NO2)C1` (stereo not drawn) [Example 1.2] as the compound, how does the “HER effect + SAF” value [1, 5] read?
A: 0%

Q: And the “Reduction [%]” value [1, 5]?
A: 100%

Q: And the “Reduction [Difference]” value [1, 5]?
A: 20

Q: And the “HER effect + SAF” value [1, 6]?
A: 0%

Q: And the “Reduction [%]” value [1, 6]?
A: 100%

Q: And the “Reduction [Difference]” value [1, 6]?
A: 30

Q: What about the HER effect ([1]; herbicide alone 2 g a.i./ha) of the same compound?
A: 20%

Q: And the HER effect ([1]; herbicide alone 8 g a.i./ha)?
A: 30%

Q: What about the “HER effect + SAF” value [2, 7] of the same compound?
A: 50%

Q: And the “Reduction [%]” value [2, 7]?
A: 44%

Q: What about the “Reduction [Difference]” value [2, 7] of the same compound?
A: 40

Q: What about the HER effect [2, 8] of the same compound?
A: 90%

Q: And the “HER effect + SAF [%] (crop damage)” value ([3]; 10 DAT, HER dose 8 g a.i./ha)?
A: 10%

Q: What about the “Reduction [%]” value ([3]; 10 DAT, HER dose 8 g a.i./ha) of the same compound?
A: 89%

Q: What about the “Reduction [Difference]” value ([3]; 10 DAT, HER dose 8 g a.i./ha) of the same compound?
A: 80

Q: What about the “HER effect [%] (crop damage, herbicide without safener)” value ([3]; 10 DAT, HER dose 8 g a.i./ha) of the same compound?
A: 90%

Q: What about the “HER effect + SAF [%] (crop damage)” value ([3]; 10 DAT, HER dose 32 g a.i./ha) of the same compound?
A: 30%

Q: And the “Reduction [%]” value ([3]; 10 DAT, HER dose 32 g a.i./ha)?
A: 67%

Q: And the “Reduction [Difference]” value ([3]; 10 DAT, HER dose 32 g a.i./ha)?
A: 60

Q: What about the “HER effect [%] (crop damage, herbicide without safener)” value ([3]; 10 DAT, HER dose 32 g a.i./ha) of the same compound?
A: 90%

Q: With `CSCCOC(=O)C1C=CC(NC(=O)C2(C(F)(F)F)CC(c3cc(F)cc(F)c3)=NO2)C1` (stereo not drawn) [Example 1.7] as the compound, how does the “HER effect + SAF” value [2, 9] read?
A: 0%

Q: What about the “Reduction [%]” value [2, 9] of the same compound?
A: 100%

Q: What about the “Reduction [Difference]” value [2, 9] of the same compound?
A: 50

Q: What about the “HER effect + SAF” value [2, 7] of the same compound?
A: 70%

Q: What about the “Reduction [%]” value [2, 7] of the same compound?
A: 25%

Q: And the “Reduction [Difference]” value [2, 7]?
A: 23

Q: And the HER effect ([2]; herbicide alone 2 g a.i./ha, 10 DAT)?
A: 50%

Q: What about the HER effect [2, 8] of the same compound?
A: 93%

Q: And the “HER effect + SAF” value [4, 10]?
A: 40%

Q: What about the “Reduction [%]” value [4, 10] of the same compound?
A: 43%

Q: And the “Reduction [Difference]” value [4, 10]?
A: 30

Q: And the “HER effect + SAF” value [4, 11]?
A: 50%

Q: What about the “Reduction [%]” value [4, 11] of the same compound?
A: 47%

Q: What about the “Reduction [Difference]” value [4, 11] of the same compound?
A: 45

Q: And the HER effect ([4]; herbicide alone 2 g a.i./ha post-emergence, 21 DAT)?
A: 70%

Q: What about the HER effect [4, 12] of the same compound?
A: 95%

Q: And the “HER effect + SAF [%] (crop damage)” value ([3]; 10 DAT, HER dose 2 g a.i./ha)?
A: 0%

Q: And the “Reduction [%]” value ([3]; 10 DAT, HER dose 2 g a.i./ha)?
A: 100%

Q: And the “Reduction [Difference]” value ([3]; 10 DAT, HER dose 2 g a.i./ha)?
A: 50

Q: What about the “HER effect [%] (crop damage, herbicide without safener)” value ([3]; 10 DAT, HER dose 2 g a.i./ha) of the same compound?
A: 50%

Q: And the “HER effect + SAF [%] (crop damage)” value ([3]; 10 DAT, HER dose 8 g a.i./ha)?
A: 40%

Q: And the “Reduction [%]” value ([3]; 10 DAT, HER dose 8 g a.i./ha)?
A: 57%

Q: And the “Reduction [Difference]” value ([3]; 10 DAT, HER dose 8 g a.i./ha)?
A: 53

Q: What about the “HER effect [%] (crop damage, herbicide without safener)” value ([3]; 10 DAT, HER dose 8 g a.i./ha) of the same compound?
A: 93%

Q: With `COC(=O)C1C=CC(NC(=O)C2(C(F)(F)F)CC(c3cccc(F)c3)=NO2)C1` (stereo not drawn) [Example 1.18] as the compound, how does the “HER effect + SAF” value [1, 13] read?
A: 0%

Q: What about the “Reduction [%]” value [1, 13] of the same compound?
A: 100%

Q: What about the “Reduction [Difference]” value [1, 13] of the same compound?
A: 20

Q: And the “HER effect + SAF” value [1, 14]?
A: 10%

Q: And the “Reduction [%]” value [1, 14]?
A: 88%

Q: What about the “Reduction [Difference]” value [1, 14] of the same compound?
A: 70

Q: And the HER effect ([1]; herbicide alone 8 g a.i./ha)?
A: 20%

Q: What about the HER effect ([1]; herbicide alone 32 g a.i./ha) of the same compound?
A: 80%

Q: What about the “HER effect + SAF” value [4, 15] of the same compound?
A: 20%

Q: What about the “Reduction [%]” value [4, 15] of the same compound?
A: 75%

Q: And the “Reduction [Difference]” value [4, 15]?
A: 60

Q: And the HER effect ([4]; herbicide alone 32 g a.i./ha post-emergence, 10 DAT)?
A: 80%

Q: With `C=CC1(C(=O)NC2C=CC(C(=O)O)C2)CC(c2cc(F)cc(F)c2)=NO1` (stereo not drawn) [Example 1.58] as the compound, how does the “HER effect + SAF” value [2, 16] read?
A: 10%

Q: And the “Reduction [%]” value [2, 16]?
A: 88%

Q: And the “Reduction [Difference]” value [2, 16]?
A: 75

Q: What about the “HER effect + SAF” value [2, 17] of the same compound?
A: 40%

Q: What about the “Reduction [%]” value [2, 17] of the same compound?
A: 57%

Q: What about the “Reduction [Difference]” value [2, 17] of the same compound?
A: 53

Q: And the HER effect ([2]; herbicide alone 2 g a.i./ha, 21 DAT)?
A: 85%

Q: And the HER effect ([2]; herbicide alone 8 g a.i./ha, 21 DAT)?
A: 93%

Q: What about the “HER effect + SAF” value [4, 18] of the same compound?
A: 0%

Q: What about the “Reduction [%]” value [4, 18] of the same compound?
A: 100%

Q: And the “Reduction [Difference]” value [4, 18]?
A: 95

Q: And the “HER effect + SAF” value [4, 11]?
A: 40%

Q: What about the “Reduction [%]” value [4, 11] of the same compound?
A: 58%

Q: And the “Reduction [Difference]” value [4, 11]?
A: 55

Q: What about the HER effect ([4]; herbicide alone 8 g a.i./ha post-emergence, 21 DAT) of the same compound?
A: 95%

Q: And the HER effect [4, 12]?
A: 95%

Q: And the “HER effect + SAF [%] (crop damage)” value ([3]; 21 DAT, HER dose 2 g a.i./ha)?
A: 0%

Q: What about the “Reduction [%]” value ([3]; 21 DAT, HER dose 2 g a.i./ha) of the same compound?
A: 100%

Q: What about the “Reduction [Difference]” value ([3]; 21 DAT, HER dose 2 g a.i./ha) of the same compound?
A: 85

Q: What about the “HER effect [%] (crop damage, herbicide without safener)” value ([3]; 21 DAT, HER dose 2 g a.i./ha) of the same compound?
A: 85%

Q: And the “HER effect + SAF [%] (crop damage)” value ([3]; 21 DAT, HER dose 8 g a.i./ha)?
A: 0%

Q: And the “Reduction [%]” value ([3]; 21 DAT, HER dose 8 g a.i./ha)?
A: 100%

Q: What about the “Reduction [Difference]” value ([3]; 21 DAT, HER dose 8 g a.i./ha) of the same compound?
A: 93

Q: What about the “HER effect [%] (crop damage, herbicide without safener)” value ([3]; 21 DAT, HER dose 8 g a.i./ha) of the same compound?
A: 93%

Q: What about the “HER effect + SAF [%] (crop damage)” value ([3]; 21 DAT, HER dose 32 g a.i./ha) of the same compound?
A: 10%

Q: What about the “Reduction [%]” value ([3]; 21 DAT, HER dose 32 g a.i./ha) of the same compound?
A: 89%

Q: What about the “Reduction [Difference]” value ([3]; 21 DAT, HER dose 32 g a.i./ha) of the same compound?
A: 83

Q: What about the “HER effect [%] (crop damage, herbicide without safener)” value ([3]; 21 DAT, HER dose 32 g a.i./ha) of the same compound?
A: 93%
